# Measurements reported in PMC9599520, “The Membrane Activity of the Amphibian Temporin B Peptide Analog TB_KKG6K Sheds Light on the Mechanism That Kills Candida albicans” (mSphere, 2022).
# Several values for one entry are separate records, joined by “and”; a condition that tells them apart may be missing. Equal values may be shown once. Where no end group is shown, it is not given here.
# Columns and labels:
# [1] = Vesicle leakage assay, PC-PE-ergosterol; format: biochemical; conditions: for relative change in leakage compared to PC-LUVs: P ≤ 0.05; for % Leakage: PC-PE-ergosterol-LUVs, 50 μM lipid, ANTS-DPX, HEPES pH 7.4, 30 min, 37°C, 1% Triton X-100 = 100%, mean ± SD, 2 experiments in duplicates
# [2] = cited from earlier work
# [3] = Vesicle leakage assay, PG; format: biochemical; conditions: for relative change in leakage compared to PC-LUVs: P ≤ 0.05; for % Leakage: PG-LUVs, 50 μM lipid, ANTS-DPX, HEPES pH 7.4, 30 min, 37°C, 1% Triton X-100 = 100%, mean ± SD, 2 experiments in duplicates
# [4] = Vesicle leakage assay, PC-ceramide; format: biochemical; conditions: for % Leakage: PC-ceramide-LUVs, 50 μM lipid, ANTS-DPX, HEPES pH 7.4, 30 min, 37°C, 1% Triton X-100 = 100%, mean ± SD, 2 experiments in duplicates
# [5] = Vesicle leakage assay, PC-PS; format: biochemical; conditions: for % Leakage: PC-PS-LUVs, 50 μM lipid, ANTS-DPX, HEPES pH 7.4, 30 min, 37°C, 1% Triton X-100 = 100%, mean ± SD, 2 experiments in duplicates
# [6] = system: mammalian cells; primary human skin cells and three-dimensional skin epidermal models; conditions: cited from earlier work
# [7] = Vesicle leakage assay, PC-ergosterol; format: biochemical; conditions: for relative change in leakage compared to PC-LUVs: P ≤ 0.05; for % Leakage: PC-ergosterol-LUVs, 50 μM lipid, ANTS-DPX, HEPES pH 7.4, 30 min, 37°C, 1% Triton X-100 = 100%, mean ± SD, 2 experiments in duplicates
# [8] = Vesicle leakage assay, PC; format: biochemical; conditions: PC-LUVs, 50 μM lipid, ANTS-DPX, HEPES pH 7.4, 30 min, 37°C, 1% Triton X-100 = 100%, mean ± SD, 2 experiments in duplicates
# [9] = Vesicle leakage assay, PC-sphingomyelin; format: biochemical; conditions: for relative change in leakage compared to PC-LUVs: P ≤ 0.05; for % Leakage: PC-sphingomyelin-LUVs, 50 μM lipid, ANTS-DPX, HEPES pH 7.4, 30 min, 37°C, 1% Triton X-100 = 100%, mean ± SD, 2 experiments in duplicates
# [10] = system: C. albicans cell membrane; test: Membrane depolarization assay with DiSC3(5) dye; format: cell-based, Candida albicans
# [11] = Vesicle leakage assay, PC-PE; format: biochemical; conditions: for relative change in leakage compared to PC-LUVs: P ≤ 0.05; for % Leakage: PC-PE-LUVs, 50 μM lipid, ANTS-DPX, HEPES pH 7.4, 30 min, 37°C, 1% Triton X-100 = 100%, mean ± SD, 2 experiments in duplicates
# [12] = Vesicle leakage assay, PC-PI; format: biochemical; conditions: for relative change in leakage compared to PC-LUVs: P ≤ 0.05; for % Leakage: PC-PI-LUVs, 50 μM lipid, ANTS-DPX, HEPES pH 7.4, 30 min, 37°C, 1% Triton X-100 = 100%, mean ± SD, 2 experiments in duplicates
# [13] = Vesicle leakage assay, PC-CL; format: biochemical; conditions: for relative change in leakage compared to PC-LUVs: P ≤ 0.05; for % Leakage: PC-CL-LUVs, 50 μM lipid, ANTS-DPX, HEPES pH 7.4, 30 min, 37°C, 1% Triton X-100 = 100%, mean ± SD, 2 experiments in duplicates
# [14] = Vesicle leakage assay, PC-PS-ergosterol; format: biochemical; conditions: for relative change in leakage compared to PC-LUVs: P ≤ 0.05; for % Leakage: PC-PS-ergosterol-LUVs, 50 μM lipid, ANTS-DPX, HEPES pH 7.4, 30 min, 37°C, 1% Triton X-100 = 100%, mean ± SD, 2 experiments in duplicates
# [15] = Vesicle leakage assay, PG-PE-CL; format: biochemical; conditions: PG-PE-CL-LUVs, 50 μM lipid, ANTS-DPX, HEPES pH 7.4, 30 min, 37°C, 1% Triton X-100 = 100%, mean ± SD, 2 experiments in duplicates
# C. albicans cells = test: Ultrastructural analysis by electron microscopy of cryo-fixed cells; conditions: 30 μM, 60 min, 30°C
substance,measurement,setting,value
KKLLPIVKNLLKSLL-NH2 (C-terminus assumed) [TB_KKG6K],relative change in leakage compared to PC-LUVs,[1]; 2 μM peptide,−56%
same,relative change in leakage compared to PC-LUVs,[1]; 4 μM peptide,−58%
same,relative change in leakage compared to PC-LUVs,[1]; 8 μM peptide,−68%
same,% Leakage,[1]; 2 μM peptide (25:1),14.8 ± 0.8%
same,% Leakage,[1]; 4 μM peptide (12:1),17.1 ± 6.0%
same,% Leakage,[1]; 8 μM peptide (6:1),15.8 ± 1.3%
same,hydrophobicity (hydrophobic amino acids),[2],53%
same,positive net charge,[2]; pH 7,+3.9
same,relative change in leakage compared to PC-LUVs,[3]; 4 μM peptide,+30%
same,relative change in leakage compared to PC-LUVs,[3]; 8 μM peptide,+20%
same,% Leakage,[3]; 2 μM peptide (lipid:peptide 25:1),56% ± 4% and 56.0 ± 4.0%
same,% Leakage,[3]; 4 μM peptide (12:1),57.7 ± 3.9%
same,% Leakage,[3]; 8 μM peptide (6:1),61% ± 4% and 61.1 ± 4.1%
same,relative change in leakage compared to PC-LUVs,"[4]; 2 μM peptide, P ≤ 0.05",−47%
same,% Leakage,[4]; 2 μM peptide (25:1),17.9 ± 1.8%
same,% Leakage,[4]; 4 μM peptide (12:1),39.9 ± 2.4%
same,% Leakage,[4]; 8 μM peptide (6:1),44.8 ± 1.9%
same,relative change in leakage compared to PC-LUVs,"[5]; 2 μM peptide, P ≤ 0.05",−33%
same,% Leakage,[5]; 2 μM peptide (25:1),22.6 ± 3.3%
same,% Leakage,[5]; 4 μM peptide (12:1),38.1 ± 10.5%
same,% Leakage,[5]; 8 μM peptide (6:1),47.4 ± 15.1%
same,hemolysis and cytotoxicity to mammalian cells in vitro,[6],neither hemolytic nor cytotoxic
same,tolerance by primary human skin cells and three-dimensional skin epidermal models in vitro,[6],well tolerated
same,relative change in leakage compared to PC-LUVs,[7]; 2 μM peptide,−71%
same,relative change in leakage compared to PC-LUVs,[7]; 4 μM peptide,−68%
same,relative change in leakage compared to PC-LUVs,[7]; 8 μM peptide,−66%
same,% Leakage,[7]; 2 μM peptide (25:1),9.8 ± 1.5%
same,% Leakage,[7]; 4 μM peptide (12:1),13.0 ± 0.6%
same,% Leakage,[7]; 8 μM peptide (6:1),16.9 ± 2.0%
same,% Leakage,[8]; 2 μM peptide (25:1),33.8 ± 3.0%
same,% Leakage,[8]; 4 μM peptide (12:1),40.6 ± 3.2%
same,% Leakage,[8]; 8 μM peptide (6:1),49.2 ± 4.5%
same,relative change in leakage compared to PC-LUVs,[9]; 2 μM peptide,−44%
same,relative change in leakage compared to PC-LUVs,[9]; 4 μM peptide,−34%
same,relative change in leakage compared to PC-LUVs,[9]; 8 μM peptide,−31%
same,% Leakage,[9]; 2 μM peptide (25:1),18.8 ± 3.1%
same,% Leakage,[9]; 4 μM peptide (12:1),26.5 ± 1.0%
same,% Leakage,[9]; 8 μM peptide (6:1),33.9 ± 2.0%
same,time to maximum DiSC3(5) fluorescence intensity,[10]; 1 μM peptide,15 min
same,time to maximum DiSC3(5) fluorescence intensity,[10]; 2 μM peptide,25 min
same,"membrane depolarization, DiSC3(5) fluorescence intensity","[10]; 1 × 10^6 cells/mL, 30°C, 60 min, TB analog 0.5, 1, 2 μM, Triton X-100 1% (wt/vol), PCγ^C-terminal 32 μM",induced membrane depolarization in a concentration- and time-dependent manner
same,relative change in leakage compared to PC-LUVs,[11]; 2 μM peptide,−32%
same,relative change in leakage compared to PC-LUVs,[11]; 4 μM peptide,−22%
same,relative change in leakage compared to PC-LUVs,[11]; 8 μM peptide,−19%
same,% Leakage,[11]; 2 μM peptide (25:1),22.8 ± 1.3%
same,% Leakage,[11]; 4 μM peptide (12:1),31.5 ± 2.1%
same,% Leakage,[11]; 8 μM peptide (6:1),40.0 ± 3.1%
same,relative change in leakage compared to PC-LUVs,[12]; 4 μM peptide,+29%
same,relative change in leakage compared to PC-LUVs,[12]; 8 μM peptide,+15%
same,% Leakage,[12]; 2 μM peptide (25:1),37.7 ± 3.9%
same,% Leakage,[12]; 4 μM peptide (12:1),52.5 ± 2.4%
same,% Leakage,[12]; 8 μM peptide (6:1),56.5 ± 2.9%
same,relative change in leakage compared to PC-LUVs,[13]; 2 μM peptide,−93%
same,relative change in leakage compared to PC-LUVs,[13]; 4 μM peptide,−75%
same,relative change in leakage compared to PC-LUVs,[13]; 8 μM peptide,+20%
same,% Leakage,[13]; 2 μM peptide (25:1),2.2 ± 0.8%
same,% Leakage,[13]; 4 μM peptide (12:1),9.9 ± 0.7%
same,% Leakage,[13]; 8 μM peptide (6:1),59.0 ± 5.8%
same,relative change in leakage compared to PC-LUVs,[14]; 2 μM peptide,−36%
same,relative change in leakage compared to PC-LUVs,[14]; 4 μM peptide,−26%
same,% Leakage,[14]; 2 μM peptide (25:1),21.8 ± 3.5%
same,% Leakage,[14]; 4 μM peptide (12:1),30.1 ± 4.6%
same,% Leakage,[14]; 8 μM peptide (6:1),46.3 ± 4.2%
same,% Leakage,[15]; 2 μM peptide (25:1),5.3 ± 1.3%
same,% Leakage,[15]; 4 μM peptide (12:1),40.2 ± 0.9%
same,% Leakage,[15]; 8 μM peptide (6:1),61% ± 3% and 61.5 ± 2.7%
same,cell lysis,C. albicans cells,indications of cell lysis were not observed
same,ultrastructural damage,C. albicans cells,severe ultrastructural damage to the vast majority of cells
